The source of these data is patent US4973578A, “Synthetic peptides derived from the alpha-subunit of human lycoprotein hormones” (Mayo Foundation for Medical Education and Research, priority 1988, dated 1990).

Several values for one entry are separate records, joined by “and”; a condition that tells them apart may be missing. Identical values can stand only once. Residues, ends and D or L forms follow the SMILES beside them.

For test [1], the target named is T1, TSH receptor on human thyroid membranes (Homo sapiens, UniProt P16473).
T1 construct: Thyroid tissue obtained at surgery from patients with Graves' disease was prepared as described by Takahashi et al; from tissue; host or cells: human thyroid tissue from Graves' disease patients, 2000xg membrane fraction
T1 sequence (P16473 21-764): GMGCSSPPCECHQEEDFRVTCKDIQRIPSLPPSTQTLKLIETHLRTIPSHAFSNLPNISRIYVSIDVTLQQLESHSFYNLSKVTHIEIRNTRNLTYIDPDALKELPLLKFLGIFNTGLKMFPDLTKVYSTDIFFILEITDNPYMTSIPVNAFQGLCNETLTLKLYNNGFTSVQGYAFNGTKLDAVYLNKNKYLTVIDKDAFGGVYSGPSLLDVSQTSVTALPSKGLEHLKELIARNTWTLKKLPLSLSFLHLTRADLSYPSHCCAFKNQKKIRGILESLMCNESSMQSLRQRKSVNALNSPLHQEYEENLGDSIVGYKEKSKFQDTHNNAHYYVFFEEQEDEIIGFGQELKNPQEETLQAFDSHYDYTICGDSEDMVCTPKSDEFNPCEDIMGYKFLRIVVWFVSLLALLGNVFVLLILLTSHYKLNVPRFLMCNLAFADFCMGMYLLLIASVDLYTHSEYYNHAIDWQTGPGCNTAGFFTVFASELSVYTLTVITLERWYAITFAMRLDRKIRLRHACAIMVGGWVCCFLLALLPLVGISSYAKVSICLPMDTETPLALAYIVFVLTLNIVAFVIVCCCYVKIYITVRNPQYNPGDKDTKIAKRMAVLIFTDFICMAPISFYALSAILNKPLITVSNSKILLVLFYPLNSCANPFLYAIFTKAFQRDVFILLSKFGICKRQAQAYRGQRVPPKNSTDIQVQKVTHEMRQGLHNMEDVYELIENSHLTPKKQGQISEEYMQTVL
Briefly: TSH radioreceptor assay: inhibition of 125I-bTSH binding to human thyroid membrane preparations. How it is done: Thyroid tissue obtained at surgery from patients with Graves' disease was prepared as described by Takahashi et al., J. Clin. Endocrinol. Metab. 47:870 (1978), the disclosure of which is incorporated herein. Briefly, the tissue was dissected free of fibrous material, minced with scissors, and homogenized with Polytron homogenizer. The 2000×g fraction was collected by centrifugation, washed and resuspended in 40 mM Tris, 0.1% Bovine Serum Albumin (BSA) pH 7.4 at a concentration of 100 mg equivalents of wet tissue per milliliter. The preparation was stored at -70° C. until used for assay.
Highly purified bovine TSH (30 IU/mg, supplied by Dr. J. G. Pierce, UCLA) was radio-iodinated (Na^125 I, Amersham, Chicago) by a gentle lactoperoxidase procedure described by Takahashi et al., supra, then purified by Sephadex G-100 chromatography.
The membrane assay incubation mixture consisted of […] of the 2000×g membrane fraction, 0.125 ng ^125 I bTSH (approximately 20,000 cpm, 5×10^-12 M), 100 ul of 1% Triton X-100 and noted amounts of test materials in a final volume of 0.5 ml of 40 mM Tris-HCl pH 7.4 plus 0.1% BSA. Nonspecific binding was determined by addition of excess unlabeled bTSH (200 mU/ml, Sigma, St. Louis). After 2 hrs incubation at 25° C., 200 ul of 5 mg/ml bovine gamma globulin and 1 ml 30% polyethylene glycol 6000 (Baker, Phillipsburg, N.J.) in 1M NaCl was added to each tube and the tubes centrifuged at 4000 rpm for 25 minutes. The supernatants were aspirated and pellets counted in a gamma counter. Specific binding averaged 25% of total counts.
FIG. 1 reports 5×10^-12 M labeled bTSH incubated with 10 mg equivalents (wet weight) of 2000×g fraction of thyroid membranes with varying concentrations of unlabeled TSH or synthetic α-subunit peptides. Nonspecific binding was determined in the presence of excess unlabeled TSH.

Test [2] has as its system cAMP production (adenylate cyclase activity) in FRTL-5 cells. The experiment in a line: TSH bioassay, cAMP stimulation in FRTL-5 cells. It is filed as cell-based, rat. The following applies: at least 2 separate assays. How it is done: (§1) FRTL-5 cells were maintained in Ham's F-12 medium supplemented with 5% calf serum and a 6 hormone preparation including 10 mU/ml bTSH as described by Ambesi-Impiombato et al., Proc. Natl. Acad. Sci. U.S.A., 77:3455 (1980), the disclosure of which is incorporated herein. For all assays herein described, the cells were plated in 24 well plates and grown for 3 days at 37° C. then maintained for 5-7 days in medium supplemented with 10 ug insulin alone prior to assay.
(§2) The bioassay was a modification of those previously described by Bidey et al, J. Endocrinol., 101:269 (1984); and Kasagi et al., ACTA Endocrinol., 115:30 (1987). To duplicate culture wells were added varying concentrations of test materials (see below) in a final volume of 300 ul of NaCl free HBSS with 0.5 mM iso-butyl-methyl-xanthine (IBMX, Sigma, St. Louis). In stimulation assays, only synthetic α-subunit peptides were added to the incubation medium. […] Basal cAMP levels were determined in the presence of HBSS and IBMX alone. In inhibition assays percent inhibition was calculated as follows: [formula]
The standard curve for TSH is shown in FIG. 3 and reports TSH deprived FRTL-5 cells incubated for 2 hrs. in buffer (NaCl-free HBSS, 200 mM sucrose, 0.5% BSA, 0.5 mM IBMX) with increasing concentrations of bTSH. cAMP released into the incubation media was measured by RIA. […]

In test [3] the test system is TSH mediated cAMP generation in FRTL-5 cells. The experiment in a line: Inhibition of TSH mediated cAMP generation in FRTL-5 cells. The conditions noted are these: 200 mU/L bTSH, 2 hrs 37° C. It is filed as cell-based, rat. How it is done:
as §1
as §2, with “medium. For inhibition assays, the noted concentrations of synthetic α-subunit peptides were added immediately prior to the addition of 200 mU/L bTSH. The plates were incubated at 37° C. in 5% CO2 for 2 hrs then 100 ul of incubation medium was removed and diluted in 900 ul of 0.05M sodium acetate pH 6.2 and assayed for cAMP content by RIA in accordance with procedures described by Wray and Glinos, Am. J. Physiol., 234 (Cell Phisol. 3):C131(1978)); and Steiner et al., J. Biol. Chem., 247:1106 (1972).” for “medium.”
FIG. 4 reports data obtained for TSH deprived FRTL-5 cells incubated with a fixed amount of bTSH (200 mU/l) by itself or with various concentrations of synthetic peptides. cAMP content of medium was measured after 2 hrs. incubation at 37° C. Percent inhibition of cAMP generation was calculated as noted above.

For the compound `CSCC[C@H](NC(=O)[C@H](CS)NC(=O)[C@H](CCC(N)=O)NC(=O)[C@@H](N)CC(C)C)C(=O)NCC(=O)N[C@@H](CS)C(=O)N[C@@H](CS)C(=O)N[C@@H](Cc1ccccc1)C(=O)N[C@@H](CO)C(=O)N[C@@H](CCCNC(=N)N)C(=O)N[C@@H](C)C(=O)N[C@@H](Cc1ccc(O)cc1)C(=O)N1CCC[C@H]1C(=O)N[C@H](C(=O)N1CCC[C@H]1C(=O)N[C@@H](CC(C)C)C(=O)N[C@@H](CCCNC(=N)N)C(=O)N[C@@H](CO)C(=O)N[C@@H](CCCCN)C(=O)N[C@@H](CCCCN)C(=O)N[C@H](C(N)=O)[C@@H](C)O)[C@@H](C)O` [α26-46, Leu--Gln--Cys--Met--Gly--Cys--Cys--Phe--Ser--Arg--Ala--Tyr--Pro--Thr--Pro--Leu--Arg--Ser--Lys--Lys--Thr--(NH2)] (H-LQCMGCCFSRAYPTPLRSKKT-NH2), the “displacement of 125I-bTSH label” value in test [1] (at concentrations greater than 1×10^-5 m, FIG. 1) is on record as “more than 80%”. Moreover, in test [1] (human thyroid membrane homogenates, ± S.E., read-out: bTSH ED50 (effective dose necessary to inhibit binding of 125I-bTSH by 50%)), the IC50 came to 10.8 ± 0.3 µM. Moreover, in test [1] (human thyroid membranes, FIG. 1), the “inhibition of 125I-bTSH binding, result in words” value is reported as “dose dependent inhibition”. The “stimulation of cAMP levels over basal by peptide alone, in words” value in test [2] is on record as “no ability to stimulate cAMP production”. Moreover, the “percent inhibition of TSH mediated cAMP generation” value is 65.0±2.6% and 64.97% in test [3] (peptide 33.3 ug/ml); 95.6±3.1% and 95.62% in test [3] (peptide 66.7 ug/ml); 106±0.8% and 106.70% in test [3] (peptide 133.3 ug/ml).
